Measured values from patent US8058462B2, “Ligand modified poly oxo-hydroxy metal ion materials, their uses and processes for their preparation” (Medical Research Council, priority 2007, dated 2011).

Columns and labels:
Assay type in all cases: physicochemical
[1] = In vitro gastrointestinal digestion assay (simulated stomach and duodenum); details: pH 1.2
Protocol: An amount of the solid ligand-modified poly oxo-hydroxy ferric iron materials or control iron materials namely ferrous sulphate, ferric chloride, or unmodified ferric oxo-hydroxide, equivalent to 60 mg elemental iron, were added to a synthetic gastric (stomach) solution (50 mL of 2 g/L NaCl, 0.15 M HCl and 0.3 mg/mL porcine pepsin) and incubated at 37° C. for 30 minutes with radial shaking. […] The mixture was incubated at 37° C. for 60 min with radial shaking. Homogeneous Aliquots (1 mL) were collected at different time points during the process and centrifuged at 13,000 rpm for 10 minutes to separate the aggregate and aquated phases. The supernatant was analysed for iron content by ICPOES. […] The mass of remaining material (i.e. the wet pellet) was recorded. Concentrated HNO3 was added to this wet pellet and the new mass recorded. […] The starting amount of iron was calculated from the iron in the wet pellet plus the iron in the supernatant. To differentiate between soluble iron and aquated particulate iron in the supernatant, at each time point, this fraction was also ultrafiltered (Vivaspin 3,000 Da molecular weight cut-off polyethersulfone membrane, Sartorius Stedium Biotech GmbH, Goettingen, Germany) and again analysed by ICPOES. […]

[2] = Screening assay: formation (precipitation) of solid poly oxo-hydroxy iron in presence of ligand; details: ratios 1:1 to 1:5
Protocol: A series of dietary ligands was tested in a screening assay for their effects on the formation of solid ligand-modified poly oxo-hydroxy metal ion materials. Briefly, in a centrifuge tube, a fixed volume of stock solution of ferric iron (400 mM FeCl3 with 50 mM MOPS, pH 1.4) was mixed with varying volumes of a stock solution of ligand (400 mM with the exception of maltol which was 200 mM, plus MOPS at 50 mM and 0.9% NaCl) to obtain the desired metal:ligand ratio. The volumes were then equally adjusted to parity with a solution of 50 mM MOPS and 0.9% NaCl. […] A small aliquot was taken to confirm the starting iron concentration and then the pH was raised to ˜6.5 by drop-wise addition of concentrated NaOH to avoid high volume changes. After centrifugation at 2500 rpm for 10 minutes, an aliquot of supernatant was taken to analyse the iron remaining in solution. The remaining supernatant was discarded and a fixed volume of dissolution buffer at pH 6 (MOPS10 mM) or pH 4 (Acetic acid 10 mM) was then added to the wet solid of each tube and incubated overnight at room temperature. The tubes were then centrifuged (2500 rpm for 10 minutes) and an aliquot of supernatant taken to determine the iron that was disaggregated. The iron concentration in each aliquot was measured by ICPOES analysis.
Initially, the ligands were all tested using the screening assay described above at ratios of 1:1 to 1:5 and classified in three groups.

[3] = Screening assay: re-dissolution of the wet solid in pH 6 and pH 4 buffers; details: solid formed with the ligand
Protocol: A series of dietary ligands was tested in a screening assay for their effects on the formation of solid ligand-modified poly oxo-hydroxy metal ion materials. […] The volumes were then equally adjusted to parity with a solution of 50 mM MOPS and 0.9% NaCl. […] After centrifugation at 2500 rpm for 10 minutes, an aliquot of supernatant was taken to analyse the iron remaining in solution. […] The iron concentration in each aliquot was measured by ICPOES analysis.

| Ligand group by effect on the amount of solid material formed [2] | SMILES | further results |
| --- | --- | --- |
| – | O=S(=O)([O-])[O-].[Fe+2] [Ferrous sulphate, ferrous sulphate] | gastric disaggregation and dissolution profile (in words) [1]: disaggregates and dissolves very well |
| intermediate ligands | O=C(O)CC(O)C(=O)O (centres unmarked) [malic acid] | – |
| intermediate ligands | NC(=O)CC[C@H](N)C(=O)O [glutamine] | – |
| intermediate ligands | O=C(O)C(O)C(O)C(=O)O (centres unmarked) [tartaric acid] | – |
| – | Cc1occc(=O)c1O [maltol] | re-dissolution of the iron at pH 6.0 (in words) [3]: did not promote any re-dissolution |
